In patent US20140274969A1 (priority 2013, published 2014):
Read-outs that look alike come from different tables or passages of the source.

Experiments:
[1] = system: mixed neuronal and glial spinal cord cultures; conditions: 20 nM, 30 minutes before 24-hour excitotoxin exposure; cited from earlier work
acute traumatic SCI [2] = test: ASIA motor recovery after acute traumatic SCI (randomized placebo-controlled trial); assay type: in vivo, human
Protocol: The research protocol disclosed herein was approved by the University of Calgary Conjoint Health Research Ethics Board. Between June 2004 and August 2008, all subjects presenting with motor deficit secondary to acute traumatic SCI to the Spine Service at the Foothills Medical Centre in Calgary, Calgary, Alberta, Canada, were immediately identified to the principal investigators and were assessed and screened for this trial (Clinical Trials Gov. Identifier No. NCT00559494). Those within 12 h of injury who met other inclusion criteria (Table 1) were offered enrolment. […] For this purpose, sets of 10 random numbers balanced for odd and even integers were computer generated. Sequentially numbered and sealed packaged kits containing minocycline or placebo were constructed from the randomization codes for each stratified group by an independent individual not otherwise involved in the trial. Patients were administered the next available treatment kit for their appropriate treatment group. With the exception of the bedside nurse responsible for study drug administration, all subjects and research personnel were blinded to treatment until the end of the study (FIG. 1). […] Clin. Exp. Pharmacol. Physiol. 1:299-308). […] Neurological function was assessed at intervals using the American Spinal Cord Injury Association (ASIA) standardized neurological examination and included the motor composites and sensory composites. These examinations were performed by a physical medicine and rehabilitation specialist at Day 1 (time of enrolment), Day 4, Day 5, Day 7, Week 3, Week 6, Week 12, Month 6, and Month 12 (Table 3). Day 1 scores were subtracted from each subsequent score to calculate improvement from baseline for graphing purposes. […] ASIA sensory scores were similarly evaluated. […] Functional recovery data were compared over all data points. […] All statistical tests were two-tailed (a=0.05).

MMP activity = conditions: cited from earlier work
cervical SCI = conditions: rat; 90 mg/kg i.p. daily for 3 days; 42-day monitoring; cited from earlier work
[3] = cited from earlier work
SCI [4] = conditions: mice; two 50 mg/kg i.p. doses then three 25 mg/kg doses at 24 h intervals; cited from earlier work
[5] = system: amyotrophic lateral sclerosis; conditions: human; cited from earlier work
[6] = Serum and CSF minocycline steady-state levels in SCI trial subjects
Protocol: Drug or placebo infusions were continued for a total of 14 doses i.e., for 7 days after injury (FIG. 1). All infusions were administered through a subclavian central venous catheter for a 30-min period.
Each sample was centrifuged at 2000 rpm for 5 min to separate cellular matter. The supernatant was flash frozen and stored at −80° C. in aliquots.

[7] = system: hypoxic-ischemic brain injury; conditions: mice; s.c. 135 mg/kg then two 68 mg/kg doses at 24-h intervals; cited from earlier work
acute traumatic SCI [8] = test: ASIA sensory recovery (pinprick, light touch) after acute traumatic SCI; assay type: in vivo, human
Protocol: Clin. Exp. Pharmacol. Physiol. 1:299-308). […] Neurological function was assessed at intervals using the American Spinal Cord Injury Association (ASIA) standardized neurological examination and included the motor composites and sensory composites. These examinations were performed by a physical medicine and rehabilitation specialist at Day 1 (time of enrolment), Day 4, Day 5, Day 7, Week 3, Week 6, Week 12, Month 6, and Month 12 (Table 3). Day 1 scores were subtracted from each subsequent score to calculate improvement from baseline for graphing purposes. […] ASIA sensory scores were similarly evaluated. […] Functional recovery data were compared over all data points. […] All statistical tests were two-tailed (a=0.05).

SCI [9] = conditions: rats; three 30 mg/kg i.p. doses at 30 min, 60 min, 24 h after SCI; 28-day observation; cited from earlier work
[10] = cited from earlier work; remark: listed apart in the source
contusive SCI = conditions: rats; 90 mg/kg i.p. or via jugular cannula, then two 45 mg/kg i.p. at 12-h intervals; cited from earlier work
SCI [11] = conditions: rats; i.p. every 12 h for 3 days, 90 mg/kg then 30 mg/kg; cited from earlier work
[12] = long-term administration, global reports
[13] = 200 mg twice-daily intravenously
[14] = 800 mg loading dose tapered by 100 mg every 12 h to 400 mg, IV, 7 days

## CN(C)c1ccc(O)c2c1C[C@H]1C[C@H]3[C@H](N(C)C)C(O)=C(C(N)=O)C(=O)[C@@]3(O)C(O)=C1C2=O [minocycline, (2E,4S,4aR,5aS,12aR)-2-(amino-hydroxy-methylidene)-4,7-bis(dimethylamino)-10,11,12a-trihydroxy-4-a,5,5a,6-tetrahydro-4H-tetracene-1,3,12-trione]
[1]
  IL-1β and NO metabolite production: reduced
  microglia proliferation: Inhibition
  neuronal cell survival: more than doubled
Acute traumatic SCI [2]; all subjects with data beyond 3 months (44), 3-12 month plateau, P=0.20
  ASIA motor recovery greater than placebo: 6 motor points
Acute traumatic SCI [2]; cervical SCI
  distribution of motor recovery difference vs placebo: lower extremity and new segment scores: majority of the difference
  distribution of motor recovery difference vs placebo: upper extremities, zone of partial preservation: Little difference
Acute traumatic SCI [2]; cervical SCI (n=25), 95% CI 0-28, P=0.05
  difference in ASIA motor score over placebo: 14 point
Acute traumatic SCI [2]; cervical SCI subgroups (FIG. 5)
  motor recovery, low-dose vs high-dose groups: greater difference with higher doses
Acute traumatic SCI [2]; cervical motor-complete (n=16), P=0.29
  difference in ASIA motor score over placebo: 10 points
Acute traumatic SCI [2]; cervical motor-incomplete (n=9), P=0.12
  difference in ASIA motor score over placebo: 22 points
Acute traumatic SCI [2]; cervical motor-incomplete, excluding one placebo subject with poor recovery (n=8), P=0.135
  difference in ASIA motor score over placebo: 13 points
Acute traumatic SCI [2]; thoracic SCI (n=17)
  ASIA motor recovery benefit vs placebo: did not show any benefit
MMP activity
  inhibition of MMP activity: potent inhibitor
Cervical SCI
  functional or histological improvements: did not result in any functional or histological improvements
[3]; humans
  serum concentrations well tolerated: up to 6.2 mg/L
[3]; [12]
  cases of drug induced lupus: 33 cases
  cases of hypersensitivity reaction: 19 cases
  cases of serum sickness-like reaction: 11 cases
  cases of single organ dysfunction: 40 cases
SCI [4]
  recovery from SCI: facilitated significant recovery
[5]
  clinical outcome in amyotrophic lateral sclerosis: clinical deterioration
[6]; [13]
  CSF steady-state concentration: 1 µg/mL
  time to serum steady state: ≤ 48 h
[6]; 200 mg twice-daily intravenously, first five patients
  serum steady-state concentration: 4.2 µg/mL
[6]; 800 mg loading dose tapered by 100 mg every 12 h to 400 mg, IV
  time to serum and CSF steady state: ≤ 24 h
[6]; [14]
  CSF steady state: 2.3 µg/mL
  serum steady-state concentration: 12.7 µg/mL
[7]
  effects of hypoxic-ischemic brain injury: significantly exacerbated
Acute traumatic SCI [8]; all subjects, not statistically significant, P=0.15
  ASIA pinprick sensory recovery greater than placebo: nine
Acute traumatic SCI [8]; all subjects, not statistically significant, P=0.27
  ASIA light-touch sensory recovery greater than placebo: seven
Acute traumatic SCI [8]; cervical motor-incomplete, P=0.20
  ASIA light-touch score higher than placebo: 20 light-touch points
Acute traumatic SCI [8]; cervical motor-incomplete, P=0.49
  ASIA pinprick score higher than placebo: 14 pinprick points
Acute traumatic SCI [8]; thoracic SCI
  difference in sensory scores vs placebo: No difference
SCI [9]
  recovery in functional hind limb motor control: facilitated significant recovery
[10]; human, in vivo
  eliminated unchanged through the kidneys: Eight to twelve
  elimination in biologically active form through the feces: 20-35 % of the initial dose
  metabolism to three inactive liver metabolites excreted in urine and feces: 50-60 % of the administered dose
[10]; oral 150 mg
  peak serum concentration: about 2 mg/L
[10]; oral 300 mg
  peak serum concentration: about 4 mg/L
[10]; oral or intravenous administration
  half-life: 16 h
Contusive SCI
  behavioural or histological improvements or recovery from SCI: neither route for minocycline administration resulted in any behavioural or histological improvements
SCI [11]
  hindlimb motor function: significantly increased
